Measurements: patent publication EP4692088A1, “COMPOUND ACTING AS WRN HELICASE INHIBITOR” (SHANGHAI JEYOU PHARMACEUTICAL CO., LTD., priority 2023, dated 2024)

Columns and labels:
[1] = Pharmacokinetic test in rats; type: in vivo; conditions: rat; SD rats, male, oral gavage, 10 mg/kg, plasma
Description: SD rats were taken as test animals. Example 4, Example 15, and Comparative Example HRO761 were given by gavage. The drug concentrations in rat plasma at different time points were determined by LC-MS/MS to investigate the pharmacokinetic characteristics of Example 4, Example 15, and Comparative Example HRO761 in rats.
• Experimental drugs: Example 4, Example 15, and Comparative Example HRO761; • Animals: SD rats, male, 240-260 g, purchased from Shanghai Jihui Laboratory Animal Care Co.,Ltd.
(§1) An appropriate amount of Example 4, Example 15, and Comparative Example HRO761 was weighed and added to an appropriate amount of dimethyl sulfoxide, solutol, and saline (final solvent: 5% DMSO + 10% solutol + 85% saline). The mixture was vortexed and sonicated to prepare a 1.0 mg/mL dosing solution.
The rats in gavage groups (3 rats per group) of Example 4, Example 15, and Comparative Example HRO761 were administered by oral gavage after overnight fasting (dose: 10 mg/kg, administration volume: 10 mL/kg), and the rats were fed 4 h after administration.
(§2) 0.2 mL of blood was collected from the animals before administration and at 0.083 h, 0.25 h, 0.5 h, 1 h, 2 h, 4 h, 6 h, 8 h, and 24 h after administration, and anticoagulated with sodium heparin. Blood samples were placed on ice after collection, and plasma was separated by centrifugation (centrifugation conditions: 8000 rpm, 5 min). The collected plasma was stored at -80°C before analysis.
The contents of Example 4, Example 15, and Comparative Example HRO761 in rat plasma after oral administration were determined by LC-MS/MS.
(§3) Based on the calculated concentrations of the compounds in plasma at different time points, the pharmacokinetic parameters of Example 4, Example 15, and Comparative Example HRO761 in rats were calculated using winnonlin software. The pharmacokinetic parameters of Example 4, Example 15, and Comparative Example HRO761 of the present disclosure are shown in Table 14.

[2] = Pharmacokinetic test in mice; type: in vivo; conditions: mouse; CD-1 mice, male, oral gavage, 10 mg/kg, plasma
Description: CD-1 mice were taken as test animals. Example 4, Example 22, and Comparative Example HRO761 were given by gavage. The drug concentrations in mouse plasma at different time points were determined by LC-MS/MS to investigate the pharmacokinetic characteristics of the compounds of the present disclosure in mice.
• Experimental drugs: Example 4, Example 22, and Comparative Example HRO761; • Animals: CD-1 mice, male, 24-25 g, purchased from Shanghai Jihui Laboratory Animal Care Co.,Ltd.
as §1, with “4, Example 22, and Comparative” for “4, Example 15, and Comparative”, “weighed and sequentially added to” for “weighed and added to”
Three mice in gavage groups of Example 4, Example 22, and Comparative Example HRO761 were administered by oral gavage after overnight fasting (dose: 10 mg/kg, administration volume: 10 mL/kg), and the mice were fed 4 h after administration.
as §2, with “0.04 mL” for “0.2 mL”
LC-MS/MS was used to determine the content of the test compound in mouse plasma after intragastric administration.
as §3, with “22,” for “15,”, “mice” for “rats”, “13.” for “14.”

LoVo = assay: Cell proliferation assay (CellTiter-Glo), LoVo; type: cell-based; conditions: Homo sapiens, 120 h, 5 days incubation
Description: (§4) SW48 cells were plated at a density of 1,500 cells/well, and LoVo, HCT116, and SW620 cells were plated at a density of 800 cells/well in a 96-well cell culture plate, and cultured in a 37°C incubator overnight. The test compounds, which were gradient-diluted with DMSO, were added, and after incubation for 5 days, cell viability was detected using a CellTiter-Glo kit. The CellTiter-Glo reagent was equilibrated to room temperature, and an appropriate amount was added to the cell plate, followed by shaking at room temperature for 12 min. The luminescence signal was detected using a microplate reader.
(§5) The luminescence signal values of the DMSO-treated wells and cell-free wells were used as negative and positive controls, respectively, to calculate the inhibition rate of compound on cell proliferation. The concentration-inhibition curve was fitted using the "log(inhibitor) vs. normalized response -- Variable slope" equation in GraphPad Prism 8 software to obtain the IC50. [formula]

WRN enzyme = biological target: T1, WRN enzyme (Homo sapiens, UniProt Q14191); assay: biochemical
T1 construct: host or cells: eukaryotic cells (not further specified)
Description: The WRN enzyme used in the experiment has a His-TEV tag at the N-terminus and is expressed in eukaryotic cells with a purity of 90%. The assay kit (ADP-Glo™ Kinase Assay) was purchased from Promega (Cat. No. V9101), aliquoted, and then stored in the refrigerator at -40°C. This kit could quantitatively detect the amount of ADP generated in the reaction. WRN hydrolyzed ATP to produce ADP. The ADP-Glo reagent was added to deplete excess ATP in the reaction system, followed by the addition of Kinase Detection Reagent to convert the ADP produced by the reaction into ATP and produce chemiluminescence. The enzyme activity of WRN can be reflected by detecting the chemiluminescence signal using a microplate reader.
Single-stranded DNA was annealed to form double-stranded DNA. 5× Annealing Buffer: 50 mM Tris pH 8.0, 100 mM NaCl. Annealing program: 95°C, 5 min.
2× WRN enzyme (1 nM) and 2× substrate (1 nM double-stranded DNA, 100 µM ATP) were prepared using a buffer (20 mM Bicine (pH 7.5), 10 mM KCl, 10 mM MgCl2, 0.005% BSG, 0.002% Tween 20, 1 mM TCEP). The test compound was dissolved in DMSO to 10 mM and was gradient-diluted using a 96-well V-bottom plate. First, 25 µL of 2× WRN enzyme and 0.5 µL of compound were added to a 96-well plate and incubated at room temperature for 30 min. Then, 25 µL of 2× substrate was added, and the reaction was carried out at room temperature for 60 min. 5 µL was taken from the reaction plate and transferred to a 384-well plate for detection. 5 µL of ADP-Glo reagent was added and incubated at room temperature for 60 min, followed by the addition of 10 µL of Kinase Detection Reagent and incubation at room temperature for 40 min. The chemiluminescence signal was detected using a microplate reader.

SW48 cells = assay: Cell proliferation assay (CellTiter-Glo), SW48; type: cell-based; conditions: Homo sapiens, SW48, 120 h, SW-48, 5 days incubation
Description: as §4, §5

T1 sequence (Q14191 whole entry): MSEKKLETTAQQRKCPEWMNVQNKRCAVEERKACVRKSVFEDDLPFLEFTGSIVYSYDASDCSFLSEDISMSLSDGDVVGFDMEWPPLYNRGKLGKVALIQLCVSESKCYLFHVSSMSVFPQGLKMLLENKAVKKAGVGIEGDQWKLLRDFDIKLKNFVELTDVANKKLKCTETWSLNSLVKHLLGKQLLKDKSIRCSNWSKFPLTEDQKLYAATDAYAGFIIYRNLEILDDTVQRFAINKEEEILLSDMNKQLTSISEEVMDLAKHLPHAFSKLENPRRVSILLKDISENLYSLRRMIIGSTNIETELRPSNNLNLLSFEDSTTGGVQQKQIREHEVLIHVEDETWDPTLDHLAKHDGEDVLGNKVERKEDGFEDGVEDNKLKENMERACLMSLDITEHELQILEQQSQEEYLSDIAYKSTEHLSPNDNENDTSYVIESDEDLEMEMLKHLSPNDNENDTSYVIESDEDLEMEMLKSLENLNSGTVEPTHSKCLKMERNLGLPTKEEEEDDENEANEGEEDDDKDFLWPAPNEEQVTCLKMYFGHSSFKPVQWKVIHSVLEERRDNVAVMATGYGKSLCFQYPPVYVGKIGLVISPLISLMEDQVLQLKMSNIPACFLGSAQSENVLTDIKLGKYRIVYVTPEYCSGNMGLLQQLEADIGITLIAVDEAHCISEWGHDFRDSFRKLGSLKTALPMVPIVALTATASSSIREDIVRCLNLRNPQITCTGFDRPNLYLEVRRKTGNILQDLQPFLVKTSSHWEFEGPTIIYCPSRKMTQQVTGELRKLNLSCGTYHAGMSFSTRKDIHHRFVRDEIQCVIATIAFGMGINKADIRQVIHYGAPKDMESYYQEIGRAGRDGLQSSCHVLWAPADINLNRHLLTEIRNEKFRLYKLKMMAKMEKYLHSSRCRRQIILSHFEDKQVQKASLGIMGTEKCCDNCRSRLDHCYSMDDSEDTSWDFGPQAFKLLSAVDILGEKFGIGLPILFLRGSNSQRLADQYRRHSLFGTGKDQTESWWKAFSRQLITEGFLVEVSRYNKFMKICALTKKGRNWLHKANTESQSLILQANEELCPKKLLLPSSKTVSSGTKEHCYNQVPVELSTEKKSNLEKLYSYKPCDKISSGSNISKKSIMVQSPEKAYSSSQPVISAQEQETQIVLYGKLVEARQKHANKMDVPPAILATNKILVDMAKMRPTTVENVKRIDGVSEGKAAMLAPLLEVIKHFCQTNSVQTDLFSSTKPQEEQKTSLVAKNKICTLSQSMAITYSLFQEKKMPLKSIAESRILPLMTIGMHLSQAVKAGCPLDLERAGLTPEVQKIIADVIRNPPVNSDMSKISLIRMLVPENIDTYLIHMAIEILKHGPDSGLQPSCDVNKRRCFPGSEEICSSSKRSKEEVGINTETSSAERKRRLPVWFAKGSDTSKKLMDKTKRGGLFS

Compound | AUC(0-inf) [1] | Cmax [1] | AUC(0-inf) [2] | Cmax [2] | IC50 (LoVo) | IC50 (WRN enzyme) | IC50 (SW48 cells)
CCc1c(N2CCN(C(=O)c3ncnc(C)c3O)CC2)c(=O)c2nn(C3=CCOCC3)nc2n1CC(=O)Nc1ccc(C(F)(F)F)cc1Cl [Example 4] | 170000 ng·h/mL | 19200 ng/mL | 51500 ng·h/mL | 24800 ng/mL | 105 nM | 88.5 nM | 37.2 nM
CCc1c(N2CCN(C(=O)c3ncnc(C)c3O)CC2)c(=O)c2nn(C3=CCOCC3)nc2n1CC(=O)Nc1cc(F)c(C(F)(F)F)cc1Cl [Example 15] | 46400 ng·h/mL | 9020 ng/mL |  |  |  | 34.3 nM | 35.4 nM
CCc1c(N2CCN(C(=O)c3ncnc(C)c3O)CC2)c(=O)c2nn(C3=CCOCC3)nc2n1CC(=O)Nc1cc(F)c(Cl)cc1Cl [Example 22] |  |  | 83400 ng·h/mL | 24600 ng/mL |  | 46.8 nM | 70.7 nM
